How the values were obtained:
[1] = IV delivery; cited from earlier work
GBM cells = experiment: Cellular labile iron pool (Calcein-AM flow cytometry), GBM cells; type: cell-based, human; conditions: increasing doses of ascorbate
Procedure: (§1) The labile iron pool (LIP) was visualized using the fluorescent dye Calcein-AM as previously described (Epsztejn et al., 1997) with modifications. After labeling, samples were divided into two flow cytometry sample tubes, to which 100 μM 2′,2′-bipyridyl (BIP) was added to one tube and analyzed by flow cytometry. BIP tubes were incubated for at least 15 minutes before analysis to allow for full chelation of intracellular labile iron. The LIP (A.U.)=MFIBIP−MFINoBIP was normalized against the control samples to calculate the relative labile iron pool.
(§2) The labile iron pool (LIP) was visualized using the fluorescent dye Calcein-AM as previously described with modifications (Epsztejn et al., 1997). Briefly, after sample treatment, cells were trypsinized, spun at 1,200 rpm for 5 min, and resuspended at approximately 1×10^6 cells mL-1 in 500 nM Calcein-AM in PBS. Samples were incubated for 15 min at 4% O2 in a humidity controlled environment (37° C., 5% CO2). Subsequently, samples were pelleted, washed in PBS, and resuspended in 1 mL PBS before dividing each sample into two flow cytometry sample tubes, to which 100 μM 2′,2′-bipyridyl (BIP) was added to one tube. Samples were kept at room temperature and analyzed on a LSR II Flow Cytometer (BD Biosciences; λex=488 nm, λem=515/20 nm). […]

NHAs = experiment: Cellular labile iron pool (Calcein-AM flow cytometry), NHAs; type: cell-based, human; conditions: increasing doses of ascorbate
Procedure: as §1, §2

NSCLC cells [2] = experiment: Intracellular H2O2 with PeroxyOrange-1, NSCLC cells; type: cell-based, human; conditions: ascorbate 15 pmol cell^−1
Procedure: To visualize intracellular H2O2 levels, the selectively sensitive fluorescent probe PeroxyOrange-1 was utilized as previously described with modifications (Dickinson et al., 2010). 1×10^5 cells were plated and grown in their respective media for 48 h. The complete protocol was conducted in the dark with minimal ambient lighting. Cells were washed with PBS and incubated with 10 uM PO-1 in phenol red free RPMI supplemented with HBE growth supplements for 1 h at 37° C. Cells were then washed in PBS and placed back in phenol red free RPMI supplemented with HBE growth supplements. […] At times indicated, cells were placed on ice for the remainder of the protocol, washed, and trypsinized with phenol red free 0.5% trypsin. After 15 min, cells still attached were scraped and all cells were collected in 15 mL conical vials containing PBS+10% FBS to neutralize the trypsin reaction. Cells were spun at 1200 rpm for 5 min at 4° C., resuspended in 300-500 uL PBS and were run on a LSR II Flow Cytometer (BD Biosciences) with λex=561 nm, λem=585/20 nm. The mean fluorescence intensity (MFI) was analyzed (FlowJo™) and corrected for autoflourescence against unlabeled cells. Normalized MFI was calculated by comparing MFI for a given treatment group against control.

terminal cancer patients = conditions: high doses of ascorbate given both IV and orally; cited from earlier work
ARP1 myeloma cells = experiment: ARP1 myeloma tumor-bearing model, IP injection, NOD-SCID mice; type: in vivo; conditions: ascorbate 4 g/kg approximately 15 days, n=3
Procedure: This experiment was repeated in a tumor-bearing mouse model through IP injection of ARP1 myeloma cells, which allows a solid tumor growth when implanted in mice purpose. A total of […] ARP1 MM cells (in 50 μl PBS) per mouse were injected into NOD-SCID mice through IP.

NCI-H292 xenografts = system: NCI-H292 xenografts
Procedure: Nude mice were injected with NCI-H292 cells into their flanks and tumors grown to a diameter of 2-4 mm.
(§3) Female 4-6 week old female athymic-nu/nu mice were purchased from Envigo (previously Harlan Laboratories) and housed in the Animal Care Facility at the University of Iowa (Iowa City, Iowa), and all procedures were approved by the University of Iowa Institutional Animal Care and Use Committee and conformed to NIH guidelines. 1×10^6 H292 or U87 cells were injected subcutaneously into the right rear flank and mice were euthanized and sacrificed when tumor length exceeded 1.5 cm in any dimension. Treatment regimens were as described in the text and are summarized in the Supplemental Experimental Procedures.
as §3, with “flank. […] Tumors were measured every other day with Vernier calipers (volume=(length×width×(width/2))” for “flank”, “dimension.” for “dimension. Treatment regimens were as described in the text and are summarized in the Supplemental Experimental Procedures.”

U118 cells = experiment: Clonogenic survival assay, U118 GBM cells; type: cell-based, human
Procedure: (§4) Treatment conditions for individual experiments are as described in the figure legends and summarized in the Supplemental Experimental Procedures.
(§5) 1-2×10^5 cells were plated in 60 mm cell culture dishes and grown in their respective media for 48 h before exposed to experimental conditions. […] For AdGPx1 experiments, cells were supplemented with 50 nM sodium selenite following transduction and throughout clonogenic growth. […] After treatment, cells were washed with PBS and clonogenic assay was completed in their respective media. Briefly, floating and attached cells were collected and total cells per plate were counted. An experimentally derived number of cells were plated into each well of a 6-well cell culture plate in their respective media. For HEL92.1.7 suspension cells, cells were seeded in a top layer of 0.4% (w/v) agarose to allow for quantifiable colony formation. […] Normalized survival fractions were calculated by comparing plating efficiencies of each treatment group against the control group within a given experiment.

U87 cells = experiment: Clonogenic survival assay, U87 GBM cells; type: cell-based, human
Procedure: as §4, §5

NSCLC cells [3] = experiment: Cellular labile iron pool (Calcein-AM flow cytometry), NSCLC cells; type: cell-based, human; conditions: increasing doses of ascorbate
Procedure: as §1, §2

ARP1 = experiment: Colony formation on soft agar, ARP1 myeloma cells; type: cell-based, human; conditions: 1 h treatment, colonies after 10-14 days
Description: A two-layer agar system was used, and colonies were visualized after 10-14 days.

[4] = 1 h ascorbate + 25 μM temozolomide + 2 Gy IR
[5] = ascorbate alone, increasing concentrations, 1 h

O=C1O[C@H]([C@@H](O)CO)C(O)=C1O [ascorbate, L-ascorbic acid]
serum ascorbate concentration achieved (effective therapeutic level) [1]: ≈ 20 mM
cellular LIP after ascorbate (GBM cells): significant dose-dependent ascorbate-induced increases in cellular LIP
cellular LIP after ascorbate (NHAs): not seen
steady-state levels of H2O2 (PeroxyOrange-1) (NSCLC cells [2]): significantly increased from baseline
average increase in survival (terminal cancer patients): 300 days
final tumor volume (ARP1 myeloma cells): 50±30 mm3
survival of xenograft-bearing mice (NCI-H292 xenografts; Example 1: ascorbate 4 g/kg IP daily + 12 Gy/6fx IR + weekly 15 mg/kg carboplatin vs chemo-radiation alone): survived significantly longer
tolerability (lack of weight loss) (NCI-H292 xenografts; Example 1: ascorbate 4 g/kg IP daily, alone or with chemo-radiation): well-tolerated
tolerability (mouse weight) (NCI-H292 xenografts; Example 4: ascorbate 4 g kg^−1 IP daily): well tolerated
overall survival (NCI-H292 xenografts; Example 4: ascorbate 4 g kg^−1 IP daily + 12 Gy IR/2 fractions + weekly 15 mg kg^−1 CPL): significantly increased overall survival
sensitization to temozolomide + IR (clonogenic survival) (U118 cells; [4]): selectively sensitized
clonogenic survival / cell killing (U118 cells; [5]): dose-dependent clonogenic cell killing
sensitization to temozolomide + IR (clonogenic survival) (U87 cells; [4]): selectively sensitized
clonogenic survival / cell killing (U87 cells; [5]): dose-dependent clonogenic cell killing
cellular LIP after ascorbate (NSCLC cells [3]): significant dose-dependent ascorbate-induced increases in cellular LIP
ascorbate dose giving complete growth inhibition (colony formation) (ARP1): ≥ 10 pmol/cell

Reference: patent publication US10052304B2, “Compositions and methods for cancer therapy” (UNIVERSITY OF IOWA RESEARCH FOUNDATION, priority 2015, dated 2018)
